Where two headings read alike, the source gives them in different places. Bridge positions count the residues as written; N and C are the ends. Square brackets hold non-standard residues; d marks the D form. Peptide text beside a SMILES is read from it. * marks the point of attachment. Fmoc = O=C(OCC1c2ccccc2-c2ccccc21)*; hArg = N=C(N)NCCCC[C@H](N)C(=O)O; Pentanoyl = CCCCC(=O)*
Assays:
[1] = tested on: His-EGF(A)-Fc; assay: His-EGF(A)-Fc TR-FRET counterscreen
[2] = molecular target: PCSK9 (Homo sapiens, UniProt Q8NBP7); assay: PCSK9/EGF(A) TR-FRET binding assay; details: for IC50: TR-FRET, read-out: PCSK9/EGF(A) IC50
PCSK9, sequence (Q8NBP7 153-692): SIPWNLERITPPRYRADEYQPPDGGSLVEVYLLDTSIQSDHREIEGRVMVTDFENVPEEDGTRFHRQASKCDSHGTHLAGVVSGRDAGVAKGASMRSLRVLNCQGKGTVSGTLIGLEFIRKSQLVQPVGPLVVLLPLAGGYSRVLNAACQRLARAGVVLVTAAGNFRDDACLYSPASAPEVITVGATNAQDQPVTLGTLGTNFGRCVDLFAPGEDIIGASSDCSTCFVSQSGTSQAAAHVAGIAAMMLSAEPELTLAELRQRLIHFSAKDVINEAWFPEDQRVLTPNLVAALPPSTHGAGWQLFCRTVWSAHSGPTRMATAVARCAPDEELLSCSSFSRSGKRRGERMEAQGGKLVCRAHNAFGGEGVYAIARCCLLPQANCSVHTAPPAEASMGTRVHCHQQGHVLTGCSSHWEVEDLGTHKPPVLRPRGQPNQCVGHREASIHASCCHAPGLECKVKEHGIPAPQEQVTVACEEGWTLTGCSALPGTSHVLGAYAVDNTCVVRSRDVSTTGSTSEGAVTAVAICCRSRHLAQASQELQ
PCSK9, sequence (Q8NBP7 31-152 partner limits assumed): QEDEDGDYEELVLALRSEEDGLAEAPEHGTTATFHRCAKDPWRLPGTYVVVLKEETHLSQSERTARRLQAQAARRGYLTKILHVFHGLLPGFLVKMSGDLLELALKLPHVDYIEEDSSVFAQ

[3] = molecular target: T1, PCSK9Δhelix (Homo sapiens, UniProt Q8NBP7); assay: PCSK9Δhelix/Ab20 TR-FRET binding assay; details: for IC50: Example 7
T1 construct: Human PCSK9 construct M1-Q692 with an engineered TEV site (residue deletion Y166, R167); made in house; host or cells: CHO
T1 sequence (Q8NBP7 with tags, fused parts or gaps limits assumed): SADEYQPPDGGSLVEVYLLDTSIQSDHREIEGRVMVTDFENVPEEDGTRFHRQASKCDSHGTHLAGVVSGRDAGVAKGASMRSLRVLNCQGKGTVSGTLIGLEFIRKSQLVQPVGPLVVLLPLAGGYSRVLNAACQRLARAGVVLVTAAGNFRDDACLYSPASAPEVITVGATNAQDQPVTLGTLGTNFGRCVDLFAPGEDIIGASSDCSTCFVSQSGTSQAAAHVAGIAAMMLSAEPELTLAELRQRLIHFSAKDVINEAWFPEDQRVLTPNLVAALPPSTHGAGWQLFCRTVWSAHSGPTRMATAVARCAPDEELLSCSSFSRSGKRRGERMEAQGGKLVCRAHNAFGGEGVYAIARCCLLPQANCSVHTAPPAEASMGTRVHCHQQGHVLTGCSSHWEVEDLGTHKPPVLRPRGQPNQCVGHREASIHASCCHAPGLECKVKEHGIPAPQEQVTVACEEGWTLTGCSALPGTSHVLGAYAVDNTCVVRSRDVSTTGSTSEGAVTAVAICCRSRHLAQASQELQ
T1 sequence (Q8NBP7 31-152 partner limits assumed): as the sequence (Q8NBP7 31-152 partner limits assumed) above
Experimental: The former was based on a TF-FRET assay to measure the association of the EGF(A) domain of the LDLR to PCSK9 (“PCSK9/EGF(A) binding assay”) whilst the latter was based on a TR-FRET assay to measure binding of Ab20 to PCSK9Δhelix (“PCSK9Δhelix/Ab20 binding assay”).
The ability of compounds to inhibit binding to PCSK9 was evaluated with a panel of time-resolved fluorescence resonance energy transfer (TR-FRET) binding assays. […] The PCSK9Δhelix/Ab20 binding assay evaluated the ability of compounds to compete with Ab20 for binding to the N-terminal groove region in a His-tagged, PCSK9Δhelix construct. […] Signal generation in the PCSK9 binding assays was dependent upon the binding interaction to bring into close proximity the His-tag on the PCSK9 and the Fc-tag on the ligand. Anti-His-APC was bound to the His-tag, and anti-Fc-europium was bound to the Fc-tag. When these two antibodies were in close proximity and were irradiated with light at 340 nm, the europium was excited and emitted energy at 615 nm. This energy was taken up by the APC and was emitted as light at 665 nm. Compounds that competed with the ligand reduced the energy transfer and thus the emission at 665 nm. In the His-EGFA-Fc molecule in the counterscreen, the two tags were always in close proximity, thus any reduction in emission at 665 nm was due to interference with the detection system.
Compounds were solubilized and dilutions were prepared in DMSO. […] The plate was centrifuged to mix the well contents and allowed to incubate for 30 min. […] The TR-FRET signal was read on a ViewLux reader (PerkinElmer) with excitation at 340 nm and emission at 615 and 665 nm with a 50-μs time delay between excitation and measurement of emission. The TR-FRET ratio was calculated as the fluorescence emission at 665 nm divided by the fluorescence emission at 615 nm. The normalized TR-FRET ratios were plotted as a function of the compound concentrations, and the IC50 values were determined using a 4-parameter logistic regression.
In black 1536-well assay plates (MaKO, Aurora® Microplates, Whitefish, Mont.), 40 nL of peptide in DMSO were preincubated with 2 μL His-tagged PCSK9 plus anti-His-allophycocyanin in assay buffer (50 mM Tris-HCl, pH 7.5, 150 mM NaCl, 2 mM CaCl2, 0.01% Tween®-20, 0.1% bovine gamma globulins, and protease inhibitor cocktail) for 30 min. Then 2 μL of Fc-tagged ligand and anti-Fc-europium in assay buffer were added and allowed to incubate for 2 h.

[4] = TR-FRET, read-out: PCSK9Δhelix/Ab20 IC50
[5] = TR-FRET counterscreen, Table 8D, * = some inhibition at highest concentrations, not sufficient to fit an IC50
[6] = Table 8D, disulfide-cyclized extension peptides
[7] = TR-FRET counterscreen, Table 8E, additional compounds

Row | Compound | IC50 ([1]; counterscreen, Example 7) [µM] | IC50 [3, 4] [µM] | IC50 [1, 7] [µM] | IC50 ([2]; Table 8E, additional compounds) [µM] | also measured
1 | CC(=O)N[C@H](C(=O)N[C@H](C(=O)N[C@@H](Cc1ccccc1)C(=O)N[C@H](C(=O)N[C@@H](CO)C(=O)N[C@@H](Cc1c[nH]c2ccccc12)C(=O)N[C@@H](CCC(=O)O)C(=O)N[C@@H](CCC(=O)O)C(=O)N[C@@H](Cc1ccc(O)cc1)C(=O)N[C@@H](CC(C)C)C(=O)N[C@@H](CC(=O)O)C(=O)N[C@@H](Cc1c[nH]c2ccccc12)C(=O)N[C@H](C(=O)NCCCCCCCC(=O)N[C@@H](CCCCN)C(=O)N[C@@H](CC(C)C)C(=O)N[C@@H](Cc1c[nH]c2ccccc12)C(=O)N[C@@H](CC(N)=O)C(=O)N[C@@H](CC(C)C)C(=O)NCC(=O)N[C@@H](CCCNC(=N)N)C(=O)N[C@H](C(N)=O)C(C)C)C(C)C)[C@@H](C)O)C(C)C)[C@@H](C)O [Compound 10] | > 50 | 0.63 | – | – | IC50 ([2]; Example 7): 0.63 µM
2 | CC[C@H](C)[C@@H]1NC(=O)[C@H](CCCNC(=N)N)NC(=O)CNC(=O)[C@H](CC(C)C)NC(=O)[C@H](CC(N)=O)NC(=O)[C@H](Cc2c[nH]c3ccccc23)NC(=O)[C@@H](NC(=O)CNC(=O)[C@H](CO)NC(=O)CNC(=O)[C@@H](NC(=O)[C@H](Cc2c[nH]c3ccccc23)NC(=O)[C@H](CC(=O)O)NC(=O)[C@H](CC(C)C)NC(=O)[C@H](Cc2ccc(O)cc2)NC(=O)[C@H](CCC(=O)O)NC(=O)[C@H](CCC(=O)O)NC(=O)[C@H](Cc2c[nH]c3ccccc23)NC(=O)[C@H](CO)NC(=O)[C@@H](NC(=O)[C@H](Cc2ccccc2)NC(=O)[C@@H](NC(=O)[C@@H](NC(C)=O)[C@@H](C)O)C(C)C)[C@@H](C)O)C(C)C)CSSC[C@@H](C(N)=O)NC(=O)CNC(=O)[C@H](CCC(N)=O)NC(=O)[C@H](CO)NC(=O)CNC1=O [Compound 11] (Ac-TVFTSWEEYLDWVGSGCWNLGRIGSQGC-NH2; disulfide 17-28) | > 50 | – | – | – | IC50 ([2]; Example 7): 0.34 µM
3 | CC[C@H](C)[C@@H]1NC(=O)[C@H](CCCNC(=N)N)NC(=O)[C@H](CCCCN)NC(=O)[C@H](CC(C)C)NC(=O)[C@H](CC(N)=O)NC(=O)[C@H](Cc2c[nH]c3ccccc23)NC(=O)[C@@H](NC(=O)CNC(=O)[C@H](CO)NC(=O)CNC(=O)CNC(=O)[C@@H](NC(=O)[C@H](Cc2c[nH]c3ccccc23)NC(=O)[C@H](CC(=O)O)NC(=O)[C@H](CC(C)C)NC(=O)[C@H](Cc2ccc(O)cc2)NC(=O)[C@H](CCC(=O)O)NC(=O)[C@H](CCC(=O)O)NC(=O)[C@H](Cc2c[nH]c3ccccc23)NC(=O)[C@H](CO)NC(=O)[C@@H](NC(=O)[C@H](Cc2ccccc2)NC(=O)[C@@H](NC(=O)[C@@H](NC(C)=O)[C@@H](C)O)C(C)C)[C@@H](C)O)C(C)C)CSSC[C@@H](C(N)=O)NC(=O)CNC(=O)[C@H](CCC(N)=O)NC(=O)[C@H](CO)NC(=O)CNC1=O [Compound 13] (Ac-TVFTSWEEYLDWVGGSGCWNLKRIGSQGC-NH2; disulfide 18-29) | > 50 | 0.001 | – | – | inhibition in the PCSK9/EGF(A) binding assay [2]: potent inhibitors; IC50 ([2]; Example 7): 0.01 µM; inhibition in the PCSK9Δhelix/Ab20 binding assay [3]: potent inhibitors
4 | CC[C@H](C)[C@@H]1NC(=O)[C@H](CCCNC(=N)N)NC(=O)[C@H](CCC(N)=O)NC(=O)[C@H](CC(C)C)NC(=O)[C@H](CC(N)=O)NC(=O)[C@H](Cc2c[nH]c3ccccc23)NC(=O)[C@@H]2CCCN2C(=O)[C@H](CC(C)C)NC(=O)[C@H](CCCNC(=N)N)NC(=O)[C@@H](NC(C)=O)CSSC[C@@H](C(N)=O)NC(=O)CNC(=O)[C@H](CC(C)C)NC(=O)CNC1=O [Compound 80] (Ac-CRLPWNLQRIGLGC-NH2; disulfide 1-14) | – | – | – | – | IC50 [1, 5]: > 50 µM; IC50 [2, 6]: > 50 µM
5 | CC[C@H](C)[C@H](NC(=O)[C@H](CCCNC(=N)N)NC(=O)[C@H](CCCCN)NC(=O)[C@H](CC(C)C)NC(=O)[C@H](CC(N)=O)NC(=O)[C@H](Cc1c[nH]c2ccccc12)NC(=O)[C@H](C)NC(=O)CCCCCNC(=O)[C@@H](NC(=O)[C@H](Cc1c[nH]c2ccccc12)NC(=O)[C@H](CC(=O)O)NC(=O)[C@H](CC(C)C)NC(=O)[C@H](Cc1ccc(O)cc1)NC(=O)[C@H](CCC(=O)O)NC(=O)[C@H](CCC(=O)O)NC(=O)[C@H](Cc1c[nH]c2ccccc12)NC(=O)[C@H](CO)NC(=O)[C@@H](NC(=O)[C@H](Cc1ccccc1)NC(=O)[C@@H](NC(=O)[C@@H](NC(C)=O)[C@@H](C)O)C(C)C)[C@@H](C)O)C(C)C)C(=O)NCC(=O)N[C@@H](CO)C(N)=O [Compound 91] | > 50 | 0.01 | – | – | –
6 | CC[C@H](C)[C@H](NC(=O)[C@H](CCCNC(=N)N)NC(=O)[C@H](CCCCN)NC(=O)[C@H](CC(C)C)NC(=O)[C@H](CC(N)=O)NC(=O)[C@H](Cc1c[nH]c2ccccc12)NC(=O)[C@H](C)NC(=O)CCCCCNC(=O)[C@@H](NC(=O)[C@H](Cc1c[nH]c2ccccc12)NC(=O)[C@H](CC(=O)O)NC(=O)[C@H](CC(C)C)NC(=O)[C@H](Cc1ccc(O)cc1)NC(=O)[C@H](CCC(=O)O)NC(=O)[C@H](CCC(=O)O)NC(=O)[C@H](Cc1c[nH]c2ccccc12)NC(=O)[C@H](CO)NC(=O)[C@@H](NC(=O)[C@H](Cc1ccccc1)NC(=O)[C@@H](NC(=O)[C@@H](NC(C)=O)[C@@H](C)O)C(C)C)[C@@H](C)O)C(C)C)C(=O)NCC(N)=O [Compound 92] | > 50 | 0.013 | – | – | –
7 | CC[C@H](C)[C@H](NC(=O)[C@H](CCCNC(=N)N)NC(=O)[C@H](CCCCN)NC(=O)[C@H](CC(C)C)NC(=O)[C@H](CC(N)=O)NC(=O)[C@H](Cc1c[nH]c2ccccc12)NC(=O)[C@H](C)NC(=O)CCCCCNC(=O)[C@@H](NC(=O)[C@H](Cc1c[nH]c2ccccc12)NC(=O)[C@H](CC(=O)O)NC(=O)[C@H](CC(C)C)NC(=O)[C@H](Cc1ccc(O)cc1)NC(=O)[C@H](CCC(=O)O)NC(=O)[C@H](CCC(=O)O)NC(=O)[C@H](Cc1c[nH]c2ccccc12)NC(=O)[C@H](CO)NC(=O)[C@@H](NC(=O)[C@H](Cc1ccccc1)NC(=O)[C@@H](NC(=O)[C@@H](NC(C)=O)[C@@H](C)O)C(C)C)[C@@H](C)O)C(C)C)C(N)=O [Compound 93] | > 50 | 0.016 | – | – | –
8 | CC(=O)N[C@H](C(=O)N[C@H](C(=O)N[C@@H](Cc1ccccc1)C(=O)N[C@H](C(=O)N[C@@H](CO)C(=O)N[C@@H](Cc1c[nH]c2ccccc12)C(=O)N[C@@H](CCC(=O)O)C(=O)N[C@@H](CCC(=O)O)C(=O)N[C@@H](Cc1ccc(O)cc1)C(=O)N[C@@H](CC(C)C)C(=O)N[C@@H](CC(=O)O)C(=O)N[C@@H](Cc1c[nH]c2ccccc12)C(=O)N[C@H](C(=O)NCCCCCC(=O)N[C@@H](C)C(=O)N[C@@H](Cc1c[nH]c2ccccc12)C(=O)N[C@@H](CC(N)=O)C(=O)N[C@@H](CC(C)C)C(=O)N[C@@H](CCCCN)C(=O)N[C@@H](CCCNC(=N)N)C(N)=O)C(C)C)[C@@H](C)O)C(C)C)[C@@H](C)O [Compound 94] | > 50 | 1.41 | – | – | –
9 | CC[C@H](C)[C@@H]1NC(=O)[C@H](CCCNC(=N)N)NC(=O)[C@H](CCCCN)NC(=O)[C@H](CC(C)C)NC(=O)[C@H](CC(N)=O)NC(=O)[C@H](Cc2c[nH]c3ccccc23)NC(=O)[C@@H](NC(=O)CNC(=O)[C@H](CO)NC(=O)CNC(=O)OCC2c3ccccc3-c3ccccc32)CSSC[C@@H](C(N)=O)NC(=O)CNC(=O)[C@H](CCC(N)=O)NC(=O)[C@H](CO)NC(=O)CNC1=O [Compound 98] (Fmoc-GSGCWNLKRIGSQGC-NH2; disulfide 4-15) | – | – | – | – | IC50 [1, 5]: > 50 µM; IC50 ([3]; PCSK9Δhelix/Ab20 IC50, TR-FRET): 3.6 µM
10 | CC[C@H](C)[C@@H]1NC(=O)[C@H](CCCNC(=N)N)NC(=O)[C@H](CCC(N)=O)NC(=O)[C@H](CC(C)C)NC(=O)[C@H](CC(N)=O)NC(=O)[C@H](Cc2c[nH]c3ccccc23)NC(=O)[C@@H]2CCCN2C(=O)[C@H](CC(C)C)NC(=O)[C@H](CCCNC(=N)N)NC(=O)[C@H](NC(C)=O)CSSC[C@@H](C(N)=O)NC(=O)[C@@H]2CCCN2C(=O)[C@H](CC(C)C)NC(=O)CNC1=O [Compound 110] (Ac-[dC]RLPWNLQRIGLPC-NH2; disulfide 1-14) | – | – | – | – | IC50 [1, 5]: > 50 µM; IC50 [2, 6]: > 50 µM
11 | CCCCC(=O)N[C@@H](Cc1c[nH]c2ccccc12)C(=O)N[C@@H](CC(N)=O)C(=O)N[C@@H](CC(C)C)C(=O)N[C@H](C(=O)N[C@@H](CCCNC(=N)N)C(=O)N[C@H](C(=O)NCC(=O)N[C@@H](CC(C)C)C(=O)N[C@@H](CCC(=O)O)C(=O)N[C@@H](CCCNC(=N)N)C(N)=O)[C@@H](C)CC)C(C)C [Compound 177] (Pentanoyl-WNLVRIGLER-NH2) | – | – | ≥ 50 | ≥ 50 | –
12 | CC[C@H](C)[C@H](NC(=O)[C@H](CCCCNC(=N)N)NC(=O)[C@H](CCCCN)NC(=O)[C@H](CC(C)C)NC(=O)[C@H](CC(N)=O)NC(=O)[C@H](Cc1c[nH]c2ccccc12)NC(=O)CNC(=O)[C@@H]1CCCN1C(=O)[C@H](Cc1ccccc1)NC(=O)[C@H](CO)NC(=O)[C@H](CCC(=O)O)NC(=O)[C@H](CCSC)NC(C)=O)C(=O)NCC(=O)N[C@@H](CC(C)C)C(=O)N[C@@H](CC(C)C)C(=O)N[C@@H](CCCNC(=N)N)C(N)=O [Compound 233] (Ac-MESFPGWNLK[hArg]IGLLR-NH2) | – | – | ≥ 50 | 3.1 | –
13 | Ac-DSYPGWNLVRIGLLR-NH2 [Compound 155] | – | – | > 50 | 11 | –
14 | Ac-ESYPGWNLVRIGLLR-NH2 [Compound 156] | – | – | > 50 | 11 | –
15 | Ac-MDSFPGWNLVRIGLLR-NH2 [Compound 153] | – | – | > 50 | 12 | –
16 | Ac-SFAFPGWNLVRIGLLR-NH2 [Compound 154] | – | – | > 50 | 11 | –
17 | Ac-TVFTSWEEYLDWVGGSGKLWNLGRV-NH2 [Compound 8] | > 50 | 0.049 | – | – | –
18 | Ac-TVFTSWEEYLDWVGSGKLWNL-NH2 [Compound 6] | > 50 | 10 | – | – | –
19 | Ac-TVFTSWEEYLDWVGSGKLWNLG-NH2 [Compound 5] | > 50 | 11.1 | – | – | –
20 | Ac-TVFTSWEEYLDWVGSGKLWNLGR-NH2 [Compound 4] | > 50 | 1.52 | – | – | –

— patent US11034725B2, “Compositions and methods for treating cardiovascular disease” (Genentech, Inc., priority 2016, dated 2021)
